Data taken from patent publication US20230416307A1, “[…] PEPTIDES FOR ENHANCING VIRAL PRODUCTION” (Synvivia, Inc., priority 2022, published 2023).

Legend:
[1] = tested on: AAV2; test: Physical titer (qPCR or ddPCR, VG/ml) of AAVs packaged in cells expressing a CP; assay type: cell-based, adeno-associated virus; settings: FIG. 20A; GFP payload; cells expressing individual CP relative to no CP expression
Protocol: (§1) FIG. 20. Exemplary bar charts showing fold improvement of physical titer and/or biological titer for various CPs. […] The payload being packaged during AAV production is GFP only. The cyclic peptide generator is located on a separate DNA, is only expressed by the host cell, and is not able to be packaged. Physical titer is quantified by qPCR or ddPCR and expressed as viral genomes produced per mL (VG/ml) of AAV packaging cells and media. […] Biological titer is measured in vitro by transducing a standardized number of wild-type (WT) mammalian (HEK293) cells with diluted AAVs harvested after packaging with or without CP expression. The transductants are identified by GFP payload expression. The fold improvement is calculated by dividing the percentage of GFP expressing (transduced) cells after transduction with AAVs packaged in cells expressing a CP by the percentage of GFP expressing (transduced) cells after transduction with AAVs packaged in cells that are not expressing a CP.
Primers binding the eGFP reporter protein were used to measure the virus titer with quantitative polymerase chain reaction (qPCR). Before releasing the viral DNA from the particles, all extra-viral DNA was removed by digestion with DNase I. Then, the viral DNA was released by alkaline lysis. The qPCR was performed using the PowerUp™ SYBR™ Green Master Mix (Applied Biosystems), and primers against the zsGreen obtained from Integrated DNA Technologies. The extracted viral DNA and a serial dilution of a viral plasmid containing z as a standard were measured using the CFX96 Touch Real-Time PCR Detection System and the CFX Maestro Software (Bio-Rad, Hercules, CA).
(§2) 50-70% confluent HEK-293T cells (˜10^6 total cells) grown in DMEM supplemented with 5% FBS were quadruple transfected with pHelper Vector, pAAV-ZsGreenl Vector, AAVpro® Packaging Rep-Cap Plasmid (AAV2), and pTargeT Mammalian Expression Vector with cloned individual cyclic peptide generator of interest in a 1:1:1:1 molar ratio normalized to the plasmid size using JetOptimus Transfection Reagent in 100 mm TC treated petri dish. AAV preparation is conducted as described above. Biological viral titer measurement is performed as described above.
(§3) • 1. A 100-mm cell culture dish was reseeded with 4.0×10^6 Hek293T cells in high glucose DMEM culture medium supplemented with 10% FBS. • 2. One day after plating, the cells (70-80% confluence) were co-transfected with 3.2ug pRC2 which encodes Rep and Cap genes (SEQ ID NO: 1-7), 4.6ug pHelper which encodes Adenovirus helper genes (SEQ ID NO: 16-19, 22, 23), 2.2ug payload vector, and 1-100ng engineered cyclic peptide expression vector (if using). A jetOPTIMUS DNA transfection reagent i used during the transfection protocol (from Polyplus). • 3. 12-16 hours after transfection, media was replaced with low glucose DMEM culture medium supplemented with 1% FBS, 1×Glutamax, 10 mM HEPES, and 0.075% sodium bicarbonate. • 4. Cells and media were harvested 4 days after transfection and frozen in 1 mL aliquots. • 5. Frozen aliquots were thawed and lysed using AAVMax Lysis Reagent (Life Technologies, USA, A50520). 100 uL of AAVMax Lysis buffer was added to 900 uL of cell and media. Mixture was incubated for 2 hours with rotating. Debris was pelleted at 5,000xg for 15 minutes. AAV containing supernatant was collected. • 6. The physical and biological titers of the harvested AAV samples were determined by qPCR and biological viral titer measurement as described in Example 1.
The physical titer fold improvement was calculated by dividing the physical titer of AAVs packaged in cells expressing a CP by the physical titer of cells that are not expressing a CP.

[2] = tested on: AAV2; test: Biological titer of AAVs packaged in cells expressing a CP (GFP-positive transduced HEK293 cells); assay type: cell-based, adeno-associated virus; settings: FIG. 20B; HEK293 transduction; cells expressing individual CP relative to no CP expression
Protocol: as §1
HEK-293T were reseeded in a 24 well tissue culture treated plate at a density of 1-2*10^4 cells/well in 0.5 mL of DMEM with 10% FBS. Cells were cultured overnight. 10-fold serial dilutions of prepared AAV2 particle solutions using DMEM with 10% FBS were used to infect the HEK-293T cells. Dilutions ranged from 1:10 to 1:10000. On Day 3 after infection, cells were detached using Trypsin/EDTA and analyzed for eGFP expression by image-based cytometry.
as §2, §3
The fold improvement in biological titer was calculated by dividing the percentage of GFP expressing (transduced) cells after transduction with AAVs packaged in cells expressing a CP by the percentage of GFP expressing (transduced) cells after transduction with AAVs packaged in cells that are not expressing a CP.

Substance | fold improvement in physical titer of AAVs [1] | fold improvement in biological titer of AAVs [2]
CTCKK: engineered cyclic peptide, SEQ ID NO: 59 (cyclic; Cyclic peptide that was found to enhance AAV viral titer) | fold improvements in physical titer | 
CYSPF: engineered cyclic peptide, SEQ ID NO: 61 (cyclic; Cyclic peptide that was found to enhance AAV viral titer) |  | fold improvements in biological titer
CETDV: engineered cyclic peptide, SEQ ID NO: 52 (cyclic; Cyclic peptide that was found to enhance AAV viral titer) |  | fold improvements in biological titer
CQVTRM: engineered cyclic peptide, SEQ ID NO: 55 (cyclic; Cyclic peptide that was found to enhance AAV viral titer; We observed log10 enrichment score of 3.258, mean of 74 experimental replicates. We observed excellent mean log10 enrichment scores for this cyclic peptide across multiple AAV serotypes: AAV1_3.4; AAV2_3.3; AAV5_3.2; AAV6_3.1. Cyclo-CQVTRM possesses the following motifs: POL_HYD_POL-motif; POL_POL_HYD-motif; POS_HYD_POL-motif.) | fold improvements in physical titer | fold improvements in biological titer
CQSRS: engineered cyclic peptide, SEQ ID NO: 54 (cyclic; Cyclic peptide that was found to enhance AAV viral titer) | fold improvements in physical titer | 
CAAAS: engineered cyclic peptide, SEQ ID NO: 48 (cyclic; Cyclic peptide that was found to enhance AAV viral titer) | fold improvements in physical titer | fold improvements in biological titer
CSESCP: engineered cyclic peptide, SEQ ID NO: 57 (cyclic; Cyclic peptide that was found to enhance AAV viral titer) | fold improvements in physical titer | fold improvements in biological titer
CANMPY: engineered cyclic peptide, SEQ ID NO: 50 (cyclic; Cyclic peptide that was found to enhance AAV viral titer; We observed log10 enrichment score of 2.959, mean of 79 experimental replicates. We observed excellent mean log10 enrichment scores for this cyclic peptide across multiple AAV serotypes: AAV1_3.0; AAV2_3.1; AAV5_2.8; AAV6_2.7. This CP possesses the following motifs: POL_HYD_POL-motif; HYD_ARO_POL-motif; POL_HYD_HYD-motif.) |  | fold improvements in biological titer
CSVPY: engineered cyclic peptide, SEQ ID NO: 58 (cyclic; Cyclic peptide that was found to enhance AAV viral titer) |  | fold improvements in biological titer
CRRHYA: engineered cyclic peptide, SEQ ID NO: 230 |  | fold improvements in biological titer
CKDYFS: engineered cyclic peptide expressed from a generator plasmid, SEQ ID NO: 34 (cyclic; Cyclic peptide that was found to increase AAV viral titer.) | fold improvements in physical titer | 
CARFR: engineered cyclic peptide, SEQ ID NO: 51 (cyclic; Cyclic peptide that was found to enhance AAV viral titer) |  | fold improvements in biological titer
CSDPSA: engineered cyclic peptide, SEQ ID NO: 56 (cyclic; Cyclic peptide that was found to enhance AAV viral titer; We observed log10 enrichment score of 3.653, mean of 76 experimental replicates. We observed excellent mean log10 enrichment scores for this cyclic peptide across multiple AAV serotypes: AAV1_3.5; AAV2_4.0; AAV5_3.0; AAV6_3.4. Cyclo-CSDPSA possesses the following motifs: POL_HYD_POL-motif; NEG_HYD_POL-motif; POL_NEG_HYD-motif; POL_POL_NEG-m) | fold improvements in physical titer | fold improvements in biological titer
CYPLH: engineered cyclic peptide, SEQ ID NO: 60 (cyclic; Cyclic peptide that was found to enhance AAV viral titer) | fold improvements in physical titer | fold improvements in biological titer
CPKNP: engineered cyclic peptide, SEQ ID NO: 53 (cyclic; Cyclic peptide that was found to enhance AAV viral titer) | fold improvements in physical titer | 
CADTV: engineered cyclic peptide, SEQ ID NO: 49 (cyclic; Cyclic peptide that was found to enhance AAV viral titer) | fold improvements in physical titer | 
CYVTTD: engineered cyclic peptide, SEQ ID NO: 62 (cyclic; Cyclic peptide that was found to enhance AAV viral titer; We observed log10 enrichment score of 3.986, mean of 70 experimental replicates. We observed excellent mean log10 enrichment scores for this cyclic peptide across multiple AAV serotypes: AAV1_4.2; AAV2_4.1; AAV5_3.6; AAV6_3.9. Cyclo-CYVTTD possesses the following motifs: ARO_HYD_POL-motif; POL_POL_NEG-motif; NEG_POL_ARO-motif.) | fold improvements in physical titer | fold improvements in biological titer
